pEC50: −log10 of the molar value. Like-named read-outs stand apart in the source and are kept apart here. Starred links: 1 amine or outer side, 2 acyl side, 3 side chain; linkers in the order of their positions; H or OH if unused. Non-standard residues stand in square brackets, D forms with d. Residues, ends and D or L forms follow the SMILES beside them. Groups on a side chain read outwards from the residue. No end group written: not given here. *: point of attachment. C20 diacid = O=C(O)CCCCCCCCCCCCCCCCCCC(=O)*; C18 diacid = O=C(O)CCCCCCCCCCCCCCCCC(=O)*; αMePhe(2-F) = C[C@](N)(Cc1ccccc1F)C(=O)O; γGlu = O=C(O)[C@H](CCC(=O)[*:2])N[*:1]; αMe4Pal = C[C@](N)(Cc1ccncc1)C(=O)O; αMeY = C[C@](N)(Cc1ccc(O)cc1)C(=O)O; αMeF = C[C@](N)(Cc1ccccc1)C(=O)O; 4Pal = N[C@@H](Cc1ccncc1)C(=O)O; Aad = N[C@@H](CCCC(=O)O)C(=O)O; αMeL = CC(C)C[C@](C)(N)C(=O)O; αMeS = C[C@](N)(CO)C(=O)O; Orn = NCCC[C@H](N)C(=O)O; AEEA = NCCOCCOCC(=O)O; Aib = CC(C)(N)C(=O)O
How the values were obtained:
Assay type in all cases: cell-based
hGIPR [1] = molecular target: T1, hGIPR (Homo sapiens, UniProt P48546); assay: Functional cAMP activity in the presence of 1% HSA; conditions: read-out: cAMP Rel EC50, hGIPR
T1 sequence (P48546 22-466): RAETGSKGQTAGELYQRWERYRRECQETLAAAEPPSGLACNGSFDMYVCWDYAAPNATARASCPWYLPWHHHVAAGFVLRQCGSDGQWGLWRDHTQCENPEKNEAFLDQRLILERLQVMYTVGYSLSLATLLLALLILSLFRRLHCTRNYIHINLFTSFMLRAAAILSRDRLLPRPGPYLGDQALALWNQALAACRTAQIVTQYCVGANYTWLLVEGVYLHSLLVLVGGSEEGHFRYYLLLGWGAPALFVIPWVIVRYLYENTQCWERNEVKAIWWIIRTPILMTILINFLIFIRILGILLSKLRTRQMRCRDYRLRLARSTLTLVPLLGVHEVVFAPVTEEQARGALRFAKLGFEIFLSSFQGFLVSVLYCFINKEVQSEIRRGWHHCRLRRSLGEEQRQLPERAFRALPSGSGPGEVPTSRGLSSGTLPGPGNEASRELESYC

hGLP-1R [2] = molecular target: T2, hGLP-1R (Homo sapiens, UniProt P43220); assay: Functional cAMP activity in the presence of 1% HSA; conditions: read-out: cAMP Rel EC50, hGLP-1R
T2 sequence (P43220 24-463): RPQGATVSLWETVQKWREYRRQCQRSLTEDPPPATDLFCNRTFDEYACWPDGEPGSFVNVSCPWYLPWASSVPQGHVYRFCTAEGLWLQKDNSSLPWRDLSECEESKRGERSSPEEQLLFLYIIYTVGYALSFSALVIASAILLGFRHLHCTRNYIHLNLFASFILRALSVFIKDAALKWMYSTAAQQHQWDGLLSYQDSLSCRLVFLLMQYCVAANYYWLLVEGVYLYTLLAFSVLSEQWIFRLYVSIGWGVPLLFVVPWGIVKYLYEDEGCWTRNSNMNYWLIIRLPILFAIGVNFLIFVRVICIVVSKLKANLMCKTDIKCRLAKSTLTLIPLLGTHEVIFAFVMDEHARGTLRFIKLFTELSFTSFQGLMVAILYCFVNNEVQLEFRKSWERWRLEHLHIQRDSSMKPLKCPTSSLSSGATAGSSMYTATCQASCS

human GcgR = human GcgR (Homo sapiens, UniProt P47871); assay: Functional cAMP activity in the presence of 1% HSA; conditions: read-out: cAMP Rel EC50, hGcgR
Chain of human GcgR (P47871 26-477): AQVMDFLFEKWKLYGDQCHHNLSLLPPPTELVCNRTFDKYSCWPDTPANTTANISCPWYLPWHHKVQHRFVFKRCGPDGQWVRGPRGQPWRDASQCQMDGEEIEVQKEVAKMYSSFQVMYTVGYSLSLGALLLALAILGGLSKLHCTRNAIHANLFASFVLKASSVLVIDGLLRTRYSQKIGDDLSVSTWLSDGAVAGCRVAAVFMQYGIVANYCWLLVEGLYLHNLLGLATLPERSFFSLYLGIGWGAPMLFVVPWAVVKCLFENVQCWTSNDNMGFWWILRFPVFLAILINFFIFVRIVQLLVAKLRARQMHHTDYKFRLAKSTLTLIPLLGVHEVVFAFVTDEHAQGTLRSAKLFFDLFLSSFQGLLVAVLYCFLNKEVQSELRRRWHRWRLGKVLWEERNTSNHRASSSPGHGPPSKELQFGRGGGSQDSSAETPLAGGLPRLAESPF

hGIPR [3] = molecular target: T1, hGIPR; assay: Functional cAMP activation in the presence of 0.1% casein (no HSA); conditions: read-out: Relative cAMP EC50, hGIPR;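 for Relative cAMP EC50, hGIPR: intracellular cAMP rise after 30 min at 37 °C read by HTRF against a standard curve, scaled between buffer alone (0%) and top control ligand concentration (100%), four-parameter fit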;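 for Relative cAMP EC50, hGLP-1R: intracellular cAMP rise after 30 min at 37 °C read by HTRF, normalized between buffer only (0%) and maximal control ligand (100%), four-parameter variable-slope fit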;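 for Relative cAMP EC50, hGcgR: intracellular cAMP rise after 30 min at 37 °C, read by HTRF against a cAMP standard curve, scaled from buffer only (0%) to maximal control ligand response (100%)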
hGLP-1R [4] = molecular target: T2, hGLP-1R; assay: as above; conditions: read-out: Relative cAMP EC50, hGLP-1R
hGcgR = hGcgR (Homo sapiens, UniProt P47871); assay: as above; conditions: read-out: Relative cAMP EC50, hGcgR;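 note: intracellular cAMP rise after 30 min at 37 °C, read by HTRF against a cAMP standard curve, scaled from buffer only (0%) to maximal control ligand response (100%)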
Chain of hGcgR (P47871 26-477): as above

[5] = 0.1% casein, no HSA, geometric mean
[6] = in the presence of 0.1% casein (no HSA), geometric mean
[7] = HEK-293 clonal cell line, in the presence of 1% HSA, geometric mean of relative EC50

| Compound | pEC50 (hGIPR [1]) | pEC50 (hGLP-1R [2]) | pEC50 (human GcgR) | pEC50 (hGIPR [3]; [5]) | pEC50 (hGLP-1R [4]; [5]) | pEC50 (hGcgR; [5]) | pEC50 (hGIPR [3]; [6]) | pEC50 (hGLP-1R [4]; [6]) | pEC50 (hGcgR; [6]) | pEC50 (hGIPR [3]) | pEC50 (hGLP-1R [4]) | pEC50 (hGcgR) | pEC50 (hGIPR [1]; [7]) | pEC50 (hGLP-1R [2]; [7]) | pEC50 (human GcgR; [7]) |
| --- | --- | --- | --- | --- | --- | --- | --- | --- | --- | --- | --- | --- | --- | --- | --- |
| H-Y[Aib]QGT[αMePhe(2-F)]TSD[4Pal][αMeS]I[αMeL]LD[Orn]K([γGlu-γGlu-C18 diacid])AQ[αMe4Pal]EFI[dE][αMeY]LIEGGPPS[Aib][Orn]PPP[Orn]GE-NH2 [Example 1227] | 9.28 | 7.40 | 6.70 | 11.21 | 9.41 | 8.70 | – | – | – | – | – | – | – | – | – |
| H-Y[Aib]QGTFTSD[4Pal]SQ[αMeL]LDKK([γGlu-γGlu-C18 diacid])AQ[αMe4Pal]AFIEYLIAGGPSSGEPPPSGS-NH2 [Example 968] | 7.93 | 6.99 | 6.20 | – | – | – | 10.03 | 8.98 | 8.33 | – | – | – | – | – | – |
| H-Y[Aib]QGTFTSD[4Pal]S[Orn][αMeL]LDKK([AEEA-AEEA-γGlu-C18 diacid])AQ[αMe4Pal]AFIEYLIE[Aib]GPSSGAPPPSGS-NH2 [Example 814] | 7.56 | 6.19 | 6.26 | – | – | – | 9.47 | 8.42 | 8.41 | – | – | – | – | – | – |
| H-Y[Aib]QGTFTSDFS[Orn][αMeL]LDKK([AEEA-γGlu-C20 diacid])AQ[Aib]AFIEYLLAGGPSSGEPPPSGS-NH2 [Example 92] | 7.21 | 6.13 | 5.60 | – | – | – | 9.67 | 8.68 | 7.92 | – | – | – | – | – | – |
| CC[C@H](C)[C@H](NC(=O)[C@H](Cc1ccccc1)NC(=O)[C@H](C)NC(=O)C(C)(C)NC(=O)[C@H](CCC(N)=O)NC(=O)[C@H](C)NC(=O)[C@H](CCCCNC(=O)COCCOCCNC(=O)CC[C@H](NC(=O)CCCCCCCCCCCCCCCCC(=O)O)C(=O)O)NC(=O)[C@H](CCCCN)NC(=O)[C@H](CC(=O)O)NC(=O)[C@H](CC(C)C)NC(=O)[C@H](CC(C)C)NC(=O)[C@@H](NC(=O)[C@](C)(CO)NC(=O)[C@H](Cc1ccc(O)cc1)NC(=O)[C@H](CC(=O)O)NC(=O)[C@H](CO)NC(=O)[C@@H](NC(=O)[C@](C)(Cc1ccccc1)NC(=O)[C@@H](NC(=O)CNC(=O)[C@H](CCC(N)=O)NC(=O)C(C)(C)NC(=O)[C@@H](N)Cc1ccc(O)cc1)[C@@H](C)O)[C@@H](C)O)[C@@H](C)CC)C(=O)N[C@@H](CCC(=O)O)C(=O)N[C@@H](Cc1ccc(O)cc1)C(=O)N[C@@H](CC(C)C)C(=O)N[C@@H](CCC(=O)O)C(=O)N[C@@H](CCC(=O)O)C(=O)NCC(=O)NCC(=O)N1CCC[C@H]1C(=O)N[C@@H](CO)C(=O)N[C@@H](CO)C(=O)NCC(=O)N[C@@H](C)C(=O)N1CCC[C@H]1C(=O)N1CCC[C@H]1C(=O)N1CCC[C@H]1C(=O)N[C@@H](CO)C(N)=O [Example 393] (H-Y[Aib]QGT[αMeF]TSDY[αMeS]ILLDKK([AEEA-γGlu-C18 diacid])AQ[Aib]AFIEYLEEGGPSSGAPPPS-NH2) | 7.91 | 7.53 | 6.82 | – | – | – | – | – | – | 10.34 | 9.68 | 9.02 | – | – | – |
| H-Y[Aib]QGT[αMePhe(2-F)]TSD[4Pal][αMeS]I[αMeL]LD[Orn]K([γGlu-γGlu-C18 diacid])AQ[Aib][Orn]FI[dE][αMeY]LAEGGPSSGEPPPSGAEE-NH2 [Example 591] | 8.52 | 7.35 | 6.63 | – | – | – | – | – | – | 10.24 | 9.11 | 8.33 | – | – | – |
| H-Y[Aib]QGT[αMePhe(2-F)]TSD[4Pal][αMeS]ILLD[Orn]K([γGlu-γGlu-C18 diacid])AQ[Aib][Orn]FI[dE]YLIEGGPSSGEPPPSGTE-NH2 [Example 531] | 8.28 | 7.42 | 6.33 | – | – | – | – | – | – | 10.16 | 9.45 | 8.42 | – | – | – |
| H-Y[Aib]QGTFTSD[4Pal]SR[αMeL]LDKK([AEEA-γGlu-C18 diacid])AQ[αMe4Pal]AFIEYLIE[Aib]GPSSGAPPPSGS-NH2 [Example 809] | 7.69 | 6.60 | 6.42 | – | – | – | 9.71 | 8.73 | 8.76 | – | – | – | – | – | – |
| H-Y[Aib]QGTFTSD[4Pal]SQ[αMeL]LDKK([AEEA-γGlu-γGlu-C18 diacid])AQ[αMe4Pal]AFIEYLIAGGPSSGEPPPSGS-NH2 [Example 947] | 7.78 | 6.82 | 6.14 | – | – | – | 9.54 | 8.77 | 8.16 | – | – | – | – | – | – |
| H-Y[Aib]QGTFTSDYSK[αMeL]LDKK([AEEA-γGlu-C20 diacid])AQQAFIEYLIAGGPSSGEPPPSGD-NH2 [Example 337] | 7.00 | 6.57 | 5.53 | – | – | – | 9.48 | 9.16 | 8.23 | – | – | – | – | – | – |
| Y[Aib]QGTFTSD[4Pal]SQ[αMeL]LDKK([γGlu-γGlu-C18 diacid])AQ[αMe4Pal]AFIE[αMe4Pal]LIE[Aib]GPSSGAPPPSGEE-NH2 [Example 1121] | – | – | – | – | – | – | 9.94 | 8.28 | 8.05 | – | – | – | 8.34 | 6.78 | 6.25 |
| Y[Aib]QGTFTSD[4Pal]S[Orn][αMeL]LD[Orn]K([γGlu-γGlu-C18 diacid])AQ[αMe4Pal]AFIEYLIAGGPSSGAPPPSGSE-NH2 [Example 1011] | 7.87 | 6.83 | 6.34 | – | – | – | 9.68 | 8.67 | 8.28 | – | – | – | – | – | – |
| Y[Aib]QGT[αMePhe(2-F)]TSD[4Pal][αMeS]I[αMeL]LD[Orn]K([AEEA-γGlu-C18 diacid])AQ[αMe4Pal]EFI[dE][αMeY]LIEGGPSSGEPPPSGE-NH2 [Example 1141] | 9.09 | 7.32 | 6.77 | – | – | – | 11.04 | 9.39 | 8.94 | – | – | – | – | – | – |
| H-Y[Aib]QGT[αMePhe(2-F)]TSD[4Pal]SILLDKK([γGlu-γGlu-C18 diacid])AQ[Aib]AFIEYLEEGGPSSGAPPPSGAGE-NH2 [Example 620] | 8.22 | 7.04 | 6.18 | – | – | – | – | – | – | 10.15 | 9.01 | 8.08 | – | – | – |
| Y[Aib]QGT[αMePhe(2-F)]TSD[4Pal]SILLDKK([γGlu-γGlu-C18 diacid])AQ[Aib]AFIEYL[Aad]EGGPSSGAPPPSGTGE-NH2 [Example 661] | 8.34 | 7.29 | 6.80 | – | – | – | – | – | – | 10.18 | 8.95 | 8.75 | – | – | – |
| H-Y[Aib]QGTFTSDYSI[αMeL]LDKQAAK([AEEA-AEEA-γGlu-C20 diacid])QFVEWLLA[Aib]GPSSGAPPPSEG-NH2 [Example 327] | 7.20 | 6.33 | 5.85 | – | – | – | 9.51 | 8.79 | 8.52 | – | – | – | – | – | – |
| H-Y[Aib]QGTFTSDFS[Orn][αMeL]LDKK([AEEA-AEEA-γGlu-C18 diacid])AQ[Aib]AFIEYLLE[dA]GPSSGEPPPSGT-NH2 [Example 156] | 7.59 | 6.16 | 5.82 | – | – | – | 9.68 | 8.47 | 8.44 | – | – | – | – | – | – |
| H-Y[Aib]QGTFTSD[4Pal]SQ[αMeL]LDKK([AEEA-γGlu-C18 diacid])AQ[αMe4Pal]AFIE[αMe4Pal]LIE[Aib]GPSSGAPPPSGTE-NH2 [Example 1116] | 7.97 | 6.70 | 6.44 | – | – | – | 9.87 | 8.33 | 8.09 | – | – | – | – | – | – |
| H-Y[Aib]QGT[αMePhe(2-F)]TSDYSILLDKAAQK([AEEA-γGlu-C20 diacid])[Orn]FIEYLIEGGPSSGEPPPSEG-NH2 [Example 306] | 7.02 | 6.90 | 5.55 | – | – | – | 9.85 | 9.47 | 8.24 | – | – | – | – | – | – |
| H-Y[Aib]QGTFTSD[4Pal]SQ[αMeL]LDKK([Glu-γGlu-Glu-C18 diacid])AQ[αMe4Pal]AFIEYLIE[Aib]GPSSGAPPPSGS-NH2 [Example 896] | 7.77 | 6.27 | 5.95 | – | – | – | 9.92 | 8.33 | 7.97 | – | – | – | – | – | – |

From patent publication US20240270821A1, “GIP/GLP1/GCG TRI-RECEPTOR AGONISTS AND USES THEREOF” (priority 2023, published 2024)
